# From patent US20230251203A1, “METHOD FOR EVALUATING ADVERSE REACTION OF SESQUITERPENOIDS IN ZEDOARY TURMERIC OIL” (BEIJING FRIENDSHIP HOSPITAL, CAPITAL MEDICAL UNIVERSITY, priority 2021, published 2023)
# Key:
# [1] = target: T1, hemoglobin (Hb) (Homo sapiens, UniProt P68871+P69905); assay: UV absorbance of hemoglobin after interaction with sample (r value, dyspnea risk evaluation)
# T1 construct: purchased Sigma H7379
# Procedure: Preparation of Hb solution: a proper amount of Hb was precisely weighed and dissolved by normal saline (ultrasonic treatment for 30 s), and prepared into a solution having a concentration of 2 mg/mL.
# Preparation of a BE solution: BE reference substance is precisely weighed and dissolved by 8.8% Tween 80 solution and prepared into a solution having a concentration of 1.5 mg/mL.
# 100 μL Hb solution was added to wells of a 96-well plate, and 100 μL BE sample solution, 100 μL 8.8% Tween 80 solution or 100 μL normal saline (as blank control) were successively added to the wells added with Hb solution. Each sample was repeated with 3 wells; then the microwell plate was covered, and the mixed solution was oscillated for 5 s in an oscillator to be mixed well, standing for 10 min at 25° C. A microplate reader was used for detection, and detection conditions were as follows: spectrum scanning was performed at 37° C. and 230-400 nm with a step size of 5 nm. […]
# Where, OD is an absorbance value of a to-be-detected sample containing sesquiterpenoids in zedoary turmeric oil at a certain concentration at 280 nm after interacting with Hb; ODHb is an absorbance value of normal saline as a blank control at a wavelength of 280 nm after interacting with Hb; r is a ratio of OD to ODHb.
# [2] = target: T2, hemoglobin (Hb) α-helix (Homo sapiens, UniProt P68871+P69905); assay: Circular dichroism (CD) influences of β-elemene on Hb structure; conditions: Hb 5 μM, BE 1.00-6.25 μM, 25° C.; effect increases with BE concentration; FIG. 10
# T2 construct: purchased Sigma H7379
# T2 sequence (P69905 2-142 limits assumed): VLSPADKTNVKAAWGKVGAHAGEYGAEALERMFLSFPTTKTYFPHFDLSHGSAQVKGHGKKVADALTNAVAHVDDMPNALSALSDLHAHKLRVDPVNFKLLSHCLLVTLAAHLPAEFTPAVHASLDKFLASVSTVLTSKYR
# T2 sequence (P68871 2-147 limits assumed): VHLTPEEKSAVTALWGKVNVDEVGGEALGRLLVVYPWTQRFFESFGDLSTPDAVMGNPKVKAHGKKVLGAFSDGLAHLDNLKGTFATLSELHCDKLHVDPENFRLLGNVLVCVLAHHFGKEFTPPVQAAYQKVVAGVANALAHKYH
# Procedure: A circular dichroism spectrum technology (CD) was used to determine the influences of β-elemene on Hb structure.
# Hb mainly presents α-helix at 200-250 nm. If the α-helix structure is changed, so do the shape of CD curve at 200-250 nm. The α-helix content of Hb at 222 nm may be calculated according to the equation (1): […]
# The mean residue ellipticity (MRE) (degcm^2/dmol) is calculated according to the equation (2): […]
# where, Cp is molar concentration (mM) of Hb; n is the number of amino acid residues; l is optical path (mm).
# Preparation of a PBS solution: a proper amount of PBS buffer solution was taken and added a small amount of Tween 80, then prepared into a PBS solution containing 0.05% Tween 80.
# Preparation of a Hb solution: a proper amount of Hb was weighed precisely and added a proper amount of PBS containing 0.05% Tween 80, then prepared into Hb having a concentration of 30 μM for further use. […]
# (2) each concentration of sample was placed into a quartz sample pool from small to large (during solution exchange, the sample pool was cleaned by PBS and rinsed with the to-be-detected solution), then the sample pool was put to the sample chamber for detection in turn, and each sample was screened by spectrum for 3 times; […]
# [3] = system: SD male rats; assay: Influences of β-elemene on blood gas when causing dyspnea of rats (abdominal aortic blood, blood-gas analyzer); format: in vivo, rat; conditions: BE 1.5 mg/mL
# Procedure: Preparation of a BE solution: BE reference substances were precisely weighed and dissolved by 8.8% Tween 80 solution and prepared into a BE solution having a concentration of 1.5 mg/mL.
# 12 pieces of SPF-grade SD male rats (6 weeks of age, weight: 200±25 g) were taken; and these rats were purchased from Beijing Vital River Laboratory Animal Technology Co., Ltd, production license number: SCXK (J.) 2016-0006.Animal experiments involved in the research process were approved by Ethics Committee. The feeding conditions of the experimental rats are as follows: standard illumination-dark period is 12 h, temperature is 22±1° C., and relative humidity is 60±5%.
# The rats were randomly divided into 2 groups, 6 pieces each group. The rats were adaptively fed with common fodders for one week. Then the rats were subjected to overnight fasting (12 h), and then intraperitoneally injected with chloral hydrate (10 mg/mL, 4 mL/kg) for anesthetization. After anesthetization, the two groups were respectively injected with BE and normal saline via caudal vein with an administration volume of 6 mL/kg.
# After administration, abdominal aortic blood was taken and immediately analyzed with a blood-gas analyzer.
# [4] = target: T1, hemoglobin (Hb); assay: Surface plasmon resonance (SPR) interaction between β-elemene and hemoglobin; format: binding; conditions: Hb coupled on chip, BE 0.78-100.00 μM, FIGS. 8-9
# Procedure: Surface plasmon resonance (SPR) technology was used to verify the interaction between β-elemene and hemoglobin. […] It is generally acknowledged that KD of binding protein to small molecules has an acceptable scope of 10^−4-10^−6M.
# (1) Preparation of a Hb solution: a proper amount of Hb was weighed precisely and prepared into a solution having a concentration of 1 mg/mL with ultrapure water, then 20-fold diluted by pH 4.5 acetic acid for further use;
# (2) PBS-P+10× was prepared into PBS-P+2.1× with ultrapure water, then a proper amount of DMSO was taken and prepared into PBS 2× containing 5% DMSO+0.1% Tween 20, and filtered for further use;
# (3) A proper amount of BE reference substances were weighed precisely and dissolved into DMSO to be prepared into 10 mM solution, then the solution was diluted with PBS-P+2.1× to a reference substance solution containing 5% DMSO; and then the reference substance solution was diluted successively by 2× PBS-P+ to 100.00 μM, 50.00 μM, 25.00 μM, 12.50 μM, 6.25 μM, 3.12 μM. 1.56 μM and 0.78 μM and vortexed for 1 min, and then filtered by 0.22 μm filter membrane for further use.
# (1) Chip activation: carboxyl (channels 1 and 2) on a chip was activated by EDC/NHS;
# (2) the channel 2 was selected and coupled to a certain amount of Hb;
# (3) the activated carboxyl not coupled to proteins on the chip was blocked by ethanolamine; […]
# T1 sequence (P69905 2-142 limits assumed): as the sequence (P69905 2-142 limits assumed) above
# T1 sequence (P68871 2-147 limits assumed): as the sequence (P68871 2-147 limits assumed) above
structure (smiles),measurement,setting,value
"C=C[C@]1(C)CC[C@@H](C(=C)C)C[C@H]1C(=C)C [BE, (1S, 2S, 4R)-1-vinyl-methyl-2,4-di(1-methylvinyl) cyclohexane]",Hb absorbance within 260-300 nm,"[1]; 1.5 mg/mL BE solution + 2 mg/mL Hb, 100 μL each, FIG. 11",significantly increasing
same,r (ratio of OD to ODHb at 280 nm),"[1]; 1.5 mg/mL BE solution, r>1.5 indicates high risk of dyspnea",≈ 1.8
same,effect on Hb α-helix (CD curve at 200-250 nm),[2],makes Hb α-helix performing helix removal
same,partial pressure of arterial oxygen,"[3]; 6 mL/kg via caudal vein vs normal saline, FIG. 2",significantly decrease
same,arterial partial pressure of carbon dioxide,"[3]; 6 mL/kg via caudal vein vs normal saline, FIG. 3",significantly decreases
same,arterial blood pH,"[3]; 6 mL/kg via caudal vein vs normal saline, FIG. 4",no significant change
same,arterial oxygen saturation,"[3]; 6 mL/kg via caudal vein vs normal saline, FIG. 5",significantly decrease
same,total hemoglobin,"[3]; 6 mL/kg via caudal vein vs normal saline, FIG. 6",significantly increases
same,oxyhemoglobin,"[3]; 6 mL/kg via caudal vein vs normal saline, FIG. 7",significantly decreases
same,observed symptoms after administration,"[3]; 6 mL/kg via caudal vein, recovery after stopping administration",suffered dyspnea symptoms
same,Kd,[4],5.84 µM
